Values quoted from earlier work in patent US20250090612A1, “FEED ADDITIVE COMPOSITIONS AND METHODS OF USE” (PMI Nutrition, LLC, priority 2021, published 2025).

Test system: C. elegans
Conditions: C. elegans assay

urolithins
concentration needed to obtain a positive effect on muscle function: 50 µM | concentration required to trigger the muscle function response: 11.4 µg/mL
